The source of these data is ChEMBL document CHEMBL5608178, “Design and synthesis of 7-membered lactam fused hydroxypyridinones as potent metal binding pharmacophores (MBPs) for inhibiting influenza virus PAN endonuclease” (Eur J Med Chem, 2024).

In general, inhibition refers to the percentage by which the read-out fell short of the control. What is called IC50 is the concentration that gives 50% inhibition. Read a high IC50 as a need for much substance. The EC50 is the concentration at which the effect is half-maximal. Usually CC50 stands for the concentration that lowers cell viability or growth by half.

Data set [1] concerns the target Polymerase acidic protein (Influenza A virus (A/Puerto Rico/8/1934(H1N1))) (UniProt P03433). In words: Inhibition of Influenza A virus N-terminal Polymerase acidic protein endonuclease activity in HEK293T cells transfected with IAV RNA polymerase complex and firefly/renilla luciferase reporter at 10 uM by […] Dual-Glo luciferase assay relative to control. The data set is classed as cell-based.

For data set [2], the target named is Polymerase acidic protein (Influenza A virus (A/Puerto Rico/8/1934(H1N1)), UniProt P03433). In words: Inhibition of Influenza A virus N-terminal Polymerase acidic protein endonuclease activity in HEK293T cells transfected with IAV RNA polymerase complex and firefly/renilla luciferase reporter by […] Dual-Glo luciferase assay. The data set is classed as cell-based. (A reporter such as luciferase makes a cellular process visible.)

For data set [3], the system named is Influenza A virus. The data set is described as follows: Antiviral activity against Influenza A virus A/WSN/33, H1N1 infected in MDCK cells assessed as decrease in viral replication incubated for 72 hrs. As to conditions: A/WSN/33, H1N1, MDCK. The data set is classed as functional, organism-based.
The nature of data set [4]: Cytotoxicity against MDCK cells assessed as decrease in survival rate. In kind it is toxicity, cell-based, Canis lupus familiaris. As to conditions: dog.
The test system of data set [5] is Influenza A virus. The data set is described as follows: Antiviral activity against Influenza A virus A/WSN/33, H1N1 infected in MDCK cells assessed as suppression of viral titer at 3 uM incubated for 72 hrs relative to control. The data set is classed as functional.

In turn, `CSCC[C@H]1CN(C2c3ccccc3CCc3ccccc32)n2ccc(=O)c(O)c2C(=O)N1` returned an inhibition in data set [1] of 30.5%.
With `O=C1c2c(O)c(=O)ccn2N(C2c3ccccc3CCc3ccccc32)C[C@@H]2CCCCN12`, in data set [1], the inhibition worked out at 36.5%.
On to `O=C1c2c(O)c(=O)ccn2N(C2c3ccccc3CCc3ccccc32)C[C@@H]2CCCN12`, for which the inhibition in data set [1] was determined as 68.2%.
In turn, `O=C1c2c(O)c(=O)ccn2N(C(c2ccccc2)c2ccccc2)C[C@H]2CCCN12` yielded an inhibition in data set [1] of 48.2%.
As for `O=C1N[C@H](Cc2ccccc2)CN(C2c3ccccc3CCc3ccccc32)n2ccc(=O)c(O)c21`, the inhibition in data set [1] was determined as 49.5%.
`O=C1c2c(O)c(=O)ccn2N([C@@H]2c3ccccc3SCc3c2ccc(F)c3F)C[C@H]2CCCN12` returned a half-inhibitory concentration (IC50) in data set [2] of 0.045 µM. In addition, in the data set on Influenza A virus [3], the EC50 turned out to be 0.134 µM. The cytotoxic concentration (CC50) in data set [4] came to 15.3 µM.
`C[C@H]1CN(C2c3ccccc3CCc3ccccc32)n2ccc(=O)c(O)c2C(=O)N1` registered an inhibition in data set [1] of 37.6%.
The same measure, in the same setting: for `O=C1NC2(CCCC2)CN(C2c3ccccc3CCc3ccccc32)n2ccc(=O)c(O)c21` the value was 9.2%; for `O=C1N[C@@H](Cc2ccccc2)CN(C2c3ccccc3CCc3ccccc32)n2ccc(=O)c(O)c21`, 49%.
The compound `O=C1c2c(O)c(=O)ccn2N([C@@H]2c3ccccc3SCc3c2ccc(F)c3F)[C@@H]2COCCN12` [BALOXAVIR] came in with an inhibition in data set [1] of 99%. In data set [2], this compound yielded an IC50 of 0.001 µM. Further, the EC50 in the data set on Influenza A virus [3] is 0.001 µM. Moreover, the CC50 in data set [4] is 28.8 µM.
`C[C@@H]1CN(C2c3ccccc3CCc3ccccc32)n2ccc(=O)c(O)c2C(=O)N1` displayed an inhibition in data set [1] of 75.3%.
`O=C1c2c(O)c(=O)ccn2N(C2c3ccccc3SCc3c2ccc(F)c3F)C[C@H]2CCCN12` (stereo not given in full) came in with an inhibition in data set [1] of 99.6%. In addition, the midpoint of inhibition in data set [2], the IC50, lay at 0.082 µM. Besides, the half-maximal effective concentration (EC50) in the data set with Influenza A virus [3] was 0.421 µM. Also, the half-maximal cytotoxic concentration (CC50) in data set [4] was determined as 29.6 µM. For the same compound, the Activity in the data set on Influenza A virus [5] amounted to 99.9%.
In turn, `CSCC[C@@H]1CN(C2c3ccccc3CCc3ccccc32)n2ccc(=O)c(O)c2C(=O)N1` came in with an inhibition in data set [1] of 64.2%.
On the same count and under the same terms, for `O=C1c2c(O)c(=O)ccn2N(C2c3ccccc3CCc3ccccc32)C[C@H]2CCCCN12` the value was 66.9%; for `CC(C)C[C@H]1CN(C2c3ccccc3CCc3ccccc32)n2ccc(=O)c(O)c2C(=O)N1`, 22.4%.
`O=C1c2c(O)c(=O)ccn2N(C2c3ccccc3C=Cc3ccccc32)C[C@H]2CCCN12` showed an inhibition in data set [1] of 91.9%. This compound also registered an IC50 in data set [2] of 0.437 µM. Moreover, the half-maximal effective concentration (EC50) in the data set with Influenza A virus [3] worked out at 0.292 µM. Also, in data set [4], the CC50 was determined as 62.9 µM. In addition, in the data set with Influenza A virus [5], the Activity was determined as 82.2%.
Compound `CC(C)C[C@@H]1CN(C2c3ccccc3CCc3ccccc32)n2ccc(=O)c(O)c2C(=O)N1` returned an inhibition in data set [1] of 56.4%.
In data set [2], `O=C1c2c(O)c(=O)ccn2N([C@H]2c3ccccc3SCc3c2ccc(F)c3F)C[C@H]2CCCN12` registered an IC50 of 0.231 µM. The half-maximal effective concentration (EC50) with Influenza A virus [3] was determined as 2.88 µM. Besides, the CC50 in data set [4] is 98.5 µM.
Compound `O=C1c2c(O)c(=O)ccn2N(C(c2ccc(F)cc2)c2ccc(F)cc2)C[C@H]2CCCN12` displayed an inhibition in data set [1] of 50.1%.
In the case of `O=C1c2c(O)c(=O)ccn2N(C2c3ccccc3CCc3ccccc32)C[C@H]2CCCN12`, the inhibition in data set [1] came to 81.1%. The same compound showed an IC50 in data set [2] of 2.87 µM. For the same compound, the EC50 in the data set with Influenza A virus [3] came out at 0.724 µM. The CC50 in data set [4] worked out at 34.3 µM.
`O=C1N[C@H](c2ccccc2)CN(C2c3ccccc3CCc3ccccc32)n2ccc(=O)c(O)c21` displayed an inhibition in data set [1] of 31.6%.
In turn, `CC(C)[C@H]1CN(C2c3ccccc3CCc3ccccc32)n2ccc(=O)c(O)c2C(=O)N1` had an inhibition in data set [1] of 31%.
